Measured values: article PMC5413848, “Optimization of intestinal microsomal preparation in the rat: A systematic approach to assess the influence of various methodologies on metabolic activity and scaling factors” (Biopharmaceutics & Drug Disposition, 2017)
Like-named read-outs stand apart in the source and are kept apart here. Each block holds one compound with its values, some of them ahead of it.

Tests used:
[1] = In vitro-in vivo extrapolation of rat intestinal unbound intrinsic clearance (CL int,u,gut); assay type: in vitro ADME; conditions: for CL int,u,gut, Combined in-house pools: mean of pool 1 and pool 2 CL int,u and scaling factors; for CL int,u,gut, Pool 1 Mean: pool 1, pool specific scaling factors; for CL int,u,gut, Pool 1 Mean / CL int,u,gut, Pool 2 Mean: threshold 0.01 l/h; for CL int,u,gut, Pool 2 Mean: pool 2, pool specific scaling factors
Excerpt: The CL int,u values were scaled to give CL int,u,gut using scaling factors for the corresponding microsomal pool (Eq. (5)). The use of scalars from the mean of both pools was also investigated, and was also used for scaling of commercial microsome CL int,u data.
(5) CLint,u,G=CLuint⋅MPPGI⋅Intestine Segment Weight

[2] = Nonspecific protein binding in rat intestinal microsomes (96-well micro-equilibrium dialysis)
Experimental: Nonspecific protein binding was determined in microsomes (1 mg/ml) using high throughput 96‐well micro‐equilibrium dialysis methodology (HTDialysis, LLC, Gales Ferry, CT, USA). These experiments used dialysis membrane strips with 12–14 kDa molecular mass cut‐off (HTDialysis). The microsomes were constituted in 0.1 M phosphate buffer (pH 7.4). The final concentrations of the test compounds was 1 μM. Microsomes containing the test compound were aliquoted into donor wells in triplicate, and buffer placed in the acceptor wells. The plate was incubated at 37°C and left to equilibrate on a plate shaker (450 rpm) for 4 h. Samples from both the acceptor and donor sides of the membrane were then transferred to 96‐well plates and quenched in acetonitrile containing internal standard (AZ1). The same sample preparation and LC–MS/MS methodology was used as described for the microsomal incubations. Compound MS transitions and retention times are reported in Supplemental material Table 3. Fuinc was calculated as the ratio of acceptor to donor both normalized for internal standard as described previously 41. Correction for protein binding for depletion experiments undertaken at 0.5 mg/ml were made using Equation (4).
(4) fumic,2=1/[P]mic,2/Pmic,1×1−fumic,1/fumic,1+1
where mic,1 denotes 1 mg/ml and mic,2 is 0.5 mg/ml.

[3] = Substrate depletion in in-house rat intestinal microsome pools 1 and 2, combined CYP and UGT cofactors; conditions: for microsomal CLint at 1 μM: Han-Wistar, rat, in-house combined cofactors
Experimental: (§1) Microsomes prepared previously via the optimized method (preparation method 8) were combined to form pool 1 (n = 9 rats). A second set of three preparations was combined to form pool 2 (n = 9 rats). Intestinal microsomes were also prepared from intestinal tissue flash‐frozen in tubes on arrival in the laboratory and kept at −80°C until thawing on ice on the morning of preparation, (n = 3 occasions of n = 3 samples). In addition, for comparative purposes microsomes were also prepared from scraped intestinal tissues. Microsomes were prepared after cutting along the length of intestine and gently scraping the intestinal epithelial with a glass microscope slide (n = 1 occasion, n = 3 samples). Commercially available pooled intestinal microsomes were also used as a comparator to those produced in‐house. […] The microsomes were stored at −80°C prior to experiments.
The microsomes prepared from the final optimized preparation method (method 8) were measured for CYP content on the day of preparation prior to storage. These microsomes (n = 3 samples prepared on n = 3 separate occasions) were subsequently thawed on ice and pooled for pool 1. The pool 1 microsomes were then assayed for testosterone and 4‐NP metabolite formation. Additional intestinal microsomes were created using the identical methodology with the same number of rat intestinal samples (n = 3 samples prepared on n = 3 occasions) and assayed for testosterone and 4‐NP metabolite formation as well as for CYP content on the day of preparation before storage. The microsomes from this second set of preparations were then thawed and pooled to form pool 2.
(§2) Midazolam and 7‐hydroxycoumarin were both incubated at 1 mg/ml and 0.5 mg/ml. The microsomes were incubated on ice with alamethacin (50 μg/mg) for 15 min. […] The samples were quenched with ice cold acetonitrile (3:1 quench to sample) containing the internal standard (AZ1). The total incubation time was 40 min. Quenched samples were stored overnight at −20°C. The following day, the samples were diluted with 200 μl UPH2O, and spun at 3000 rpm (Sorvall legend RT centrifuge) for 15 min, and 200 μl of supernatant taken for analysis.

[4] = Substrate depletion in commercial Han Wistar rat intestinal microsomes, combined or individual CYP and UGT cofactors; conditions: for microsomal CLint at 1 μM: male, Han Wistar, rat, pH 7.4, CL int,u, Commercial Han Wistar pool
Experimental: as §1, §2

[5] = rat intestinal microsomes 1 mg/ml, compound 1 μM
[6] = rat intestinal microsomes, in-house pool 1, pH 7.4, CL int,u, Pool 1, pool 1, 1 mg/ml, 1 μM compound, CYP and UGT cofactors
[7] = microsomes, pH 7.4, CL int,u, Pool 1
[8] = microsomes, pH 7.4, CL int,u, Pool 2
[9] = commercial Han Wistar microsomes, individual cofactors
[10] = CYP cofactors, 1 mg/ml, 1 μM compound, CYP cofactors only
[11] = Combined cofactors, 1 mg/ml, 1 μM compound, combined CYP and UGT cofactors
[12] = UGT cofactors, 1 mg/ml, 1 μM compound, UGT cofactors only

- CL int,u,gut, Combined in-house pools [1]: 0.01 L/h
- CL int,u,gut, Pool 1 Mean [1]: 0.01 L/h
- CL int,u,gut, Pool 2 Mean [1]: 0.01 L/h
- fuinc [2, 5]: 0.90
- microsomal CLint at 1 μM [3, 6]: 7.6 µL/min/mg
SMILES: COc1ccc2[nH]c([S+]([O-])Cc3ncc(C)c(OC)c3C)nc2c1 (stereo not drawn) [Omeprazole]

- CL int,u,gut, Mean Han Wistar commercial microsomes [1]: 0.22 L/h
- fuinc ([2]; rat, 4 h, 1 μM, pH 7.4): 0.88
- microsomal CLint at 1 μM [3, 7]: 48.9 µL/min/mg
- microsomal CLint at 1 μM [3, 8]: 62.4 µL/min/mg
SMILES: COc1ccc2c(c1)c(CC(=O)O)c(C)n2C(=O)c1ccc(Cl)cc1 [Indomethacin]

- fuinc ([2]; rat, 4 h, 1 μM, pH 7.4): 0.06
SMILES: O=C(c1ccc(OCCN2CCCCC2)cc1)c1c(-c2ccc(O)cc2)sc2cc(O)ccc12 [Raloxifene]

- fuinc ([2]; rat, 4 h, 1 μM, pH 7.4): 0.85
- microsomal CLint at 1 μM [3, 7]: 21.8 µL/min/mg
- microsomal CLint at 1 μM [3, 8]: 26.7 µL/min/mg
SMILES: COc1ccc([C@@H]2Sc3ccccc3N(CCN(C)C)C(=O)[C@@H]2OC(C)=O)cc1 [Diltiazem]

- CL int,u,gut, Mean Han Wistar commercial microsomes [1]: 3.21 L/h
- Microsomal binding ([2]; rat, 4 h, 1 μM, pH 7.4): 0%
- fuinc ([2]; rat, 4 h, 1 μM, pH 7.4): 1.00
- microsomal CLint at 1 μM [3, 7]: 3.9 µL/min/mg
- microsomal CLint at 1 μM [3, 8]: 2.7 µL/min/mg
SMILES: CN1CCN(CC(=O)N2c3ccccc3C(=O)Nc3cccnc32)CC1 [Pirenzepine]

- fuinc ([2]; rat, 4 h, 1 μM, pH 7.4): 0.92
SMILES: CCCCNc1cc(C(=O)O)cc(S(N)(=O)=O)c1Oc1ccccc1 [Bumetanide]

- fuinc ([2]; rat, 4 h, 1 μM, pH 7.4): 0.98
SMILES: O=C(O)Cc1ccccc1Nc1c(Cl)cccc1Cl [Diclofenac]

- CL int,u,gut, Mean Han Wistar commercial microsomes [1]: 0.03 L/h
- fuinc ([2]; rat, 4 h, 1 μM, pH 7.4): 0.79
- microsomal CLint at 1 μM [3, 7]: 31.9 µL/min/mg
- microsomal CLint at 1 μM [3, 8]: 35.9 µL/min/mg
- Main route of elimination (CYP vs UGT cofactors) [4, 9]: glucuronidation
- microsomal CLint at 1 μM [4, 10]: 1.5 µL/min/mg
- microsomal CLint at 1 μM [4, 11]: 15.2 µL/min/mg
- microsomal CLint at 1 μM [4, 12]: 9.4 µL/min/mg
SMILES: CCCCC1=NC2(CCCC2)C(=O)N1Cc1ccc(-c2ccccc2-c2nnn[nH]2)cc1 [Irbesartan]

- CL int,u,gut, Mean Han Wistar commercial microsomes [1]: 0.05 L/h
- Predicted protein binding at 0.5 mg/ml from data measured at 1 mg/ml ([2]; rat, 4 h, 1 μM, pH 7.4): 0.43
- fuinc ([2]; rat, 4 h, 1 μM, pH 7.4): 0.28
- microsomal CLint at 1 μM [3, 7]: 495 µL/min/mg
- microsomal CLint at 1 μM [3, 8]: 416 µL/min/mg
- Main route of elimination (CYP vs UGT cofactors) [4]: CYP mediated metabolism
- microsomal CLint at 1 μM ([4]; microsomes, CYP cofactors): 59.1 µL/min/mg
- microsomal CLint at 1 μM ([4]; microsomes, Combined cofactors): 72 µL/min/mg
- microsomal CLint at 1 μM ([4]; microsomes, UGT cofactors): 7.3 µL/min/mg
SMILES: CC(C)Oc1ccc2c(=O)c(-c3ccccc3)coc2c1 [Ipriflavone]

- CL int,u,gut, Combined in-house pools [1]: 0.01 L/h
- CL int,u,gut, Pool 1 Mean [1]: 0.01 L/h
- fuinc [2, 5]: 0.20
- microsomal CLint at 1 μM [3, 6]: 24.3 µL/min/mg
- microsomal CLint at 1 μM ([3]; rat intestinal microsomes, in-house pool 2, pH 7.4, CL int,u, Pool 2, pool 2, 1 mg/ml, 1 μM compound, CYP and UGT cofactors): 19.9 µL/min/mg
- Main route of elimination (CYP vs UGT cofactors) [4, 9]: comparable
- Agreement of additive individual cofactor CL int,u with combined cofactor CL int,u ([4]; commercial microsomes, eight compounds): outside 2‐fold range
- microsomal CLint at 1 μM [4, 10]: 5.3 µL/min/mg
- microsomal CLint at 1 μM [4, 11]: 23.8 µL/min/mg
- microsomal CLint at 1 μM [4, 12]: 3 µL/min/mg
SMILES: CN(C)CCC=C1c2ccccc2CCc2ccccc21 [Amitriptyline]

Second part, the compound before the results:

SMILES: CCCCc1nc(Cl)c(CO)n1Cc1ccc(-c2ccccc2-c2nn[nH]n2)cc1 [Losartan]
- CL int,u,gut, Mean Han Wistar commercial microsomes [1]: 0.04 L/h
- fuinc ([2]; rat, 4 h, 1 μM, pH 7.4): 0.87
- microsomal CLint at 1 μM [3, 7]: 34.8 µL/min/mg
- microsomal CLint at 1 μM [3, 8]: 14.8 µL/min/mg
- Main route of elimination (CYP vs UGT cofactors) [4, 9]: glucuronidation
- microsomal CLint at 1 μM [4, 10]: 0.1 µL/min/mg
- microsomal CLint at 1 μM [4, 11]: 10 µL/min/mg
- microsomal CLint at 1 μM [4, 12]: 9 µL/min/mg

SMILES: CCC(C)(C)C(=O)O[C@H]1C[C@@H](C)C=C2C=C[C@H](C)[C@H](CC[C@@H]3C[C@@H](O)CC(=O)O3)[C@H]21 [Simvastatin]
- CL int,u,gut, Combined in-house pools [1]: 1.38 L/h
- CL int,u,gut, Pool 1 Mean [1]: 1.08 L/h
- CL int,u,gut, Pool 2 Mean [1]: 1.57 L/h
- fuinc [2, 5]: 0.93

SMILES: O=c1ccc2ccc(O)cc2o1 [7‐Hydroxycoumarin]
- CL int,u,gut, Mean Han Wistar commercial microsomes [1]: 0.07 L/h
- Predicted protein binding at 0.5 mg/ml from data measured at 1 mg/ml [2]: 1.00
- Microsomal binding ([2]; rat, 4 h, 1 μM, pH 7.4): 0%
- fuinc ([2]; rat, 4 h, 1 μM, pH 7.4): 1.00
- microsomal CLint at 1 μM [3, 7]: 196 µL/min/mg
- microsomal CLint at 1 μM [3, 8]: 264 µL/min/mg
- Main route of elimination (CYP vs UGT cofactors) [4, 9]: glucuronidation
- microsomal CLint at 1 μM [4, 10]: 0.9 µL/min/mg
- microsomal CLint at 1 μM [4, 11]: 272 µL/min/mg
- microsomal CLint at 1 μM [4, 12]: 327 µL/min/mg

SMILES: C=CC[C@@H]1/C=C(\C)C[C@H](C)C[C@H](OC)[C@H]2O[C@@](O)(C(=O)C(=O)N3CCCC[C@H]3C(=O)O[C@H](/C(C)=C/[C@@H]3CC[C@@H](O)[C@H](OC)C3)[C@H](C)[C@@H](O)CC1=O)[C@H](C)C[C@@H]2OC [Tacrolimus]
- CL int,u,gut, Combined in-house pools [1]: 59.22 L/h
- CL int,u,gut, Pool 1 Mean [1]: 37.77 L/h
- CL int,u,gut, Pool 2 Mean [1]: 77.09 L/h
- fuinc [2, 5]: 0.32
- Predicted protein binding at 0.5 mg/ml from data measured at 1 mg/ml ([2]; rat, 4 h, 1 μM, pH 7.4): 0.48
- microsomal CLint at 1 μM ([3]; rat intestinal microsomes, in-house pool 1, pH 7.4, CL int,u, Pool 1, pool 1, incubated at 0.5 mg/ml (footnote b), 1 μM compound): 465 µL/min/mg
- microsomal CLint at 1 μM ([3]; rat intestinal microsomes, in-house pool 2, pH 7.4, CL int,u, Pool 2, pool 2, incubated at 0.5 mg/ml (footnote b), 1 μM compound): 413 µL/min/mg

SMILES: CCCc1nn(C)c2c(=O)[nH]c(-c3cc(S(=O)(=O)N4CCN(C)CC4)ccc3OCC)nc12 [Sildenafil]
- fuinc ([2]; rat, 4 h, 1 μM, pH 7.4): 0.73
- microsomal CLint at 1 μM [3, 7]: 23.8 µL/min/mg
- microsomal CLint at 1 μM [3, 8]: 18.4 µL/min/mg

SMILES: CC(C)NCC(O)COc1ccc(COCCOC(C)C)cc1 (stereo not drawn) [Bisporolol]
- CL int,u,gut, Combined in-house pools [1]: 0.02 L/h
- CL int,u,gut, Pool 1 Mean [1]: 0.01 L/h
- CL int,u,gut, Pool 2 Mean [1]: 0.03 L/h
- fuinc [2, 5]: 0.89
- CL int,u, in-house combined cofactors, Pool 1 ([3]; pool 1, 1 mg/ml, 1 μM compound, CYP and UGT cofactors): 5.4 µL/min/mg
- CL int,u, in-house combined cofactors, Pool 2 ([3]; pool 2, 1 mg/ml, 1 μM compound, CYP and UGT cofactors): < 0.1 µL/min/mg

SMILES: O=C1CC2(CCCC2)CC(=O)N1CCCCN1CCN(c2ncccn2)CC1 [Buspirone]
- microsomal CLint at 1 μM ([3]; microsomes, pH 7.4, CL int,u, Pool 1, pool 1, 1 mg/ml, 1 μM compound, CYP and UGT cofactors): 3.2 µL/min/mg
- microsomal CLint at 1 μM ([3]; microsomes, pH 7.4, CL int,u, Pool 2, pool 2, 1 mg/ml, 1 μM compound, CYP and UGT cofactors): 1.4 µL/min/mg
